In patent US10793571B2, “Uses of diazepane derivatives” (Dana-Farber Cancer Institute, Inc., priority 2014, dated 2020):

Assays:
[1] = tested on: TF-1; experiment: Cellular assay (ATPlite cell viability), TF-1; assay type: cell-based; details: TF-1 cell line
Description: (§1) The compounds of the invention are also evaluated in the BRD4 dependant cell line for the cellular activity to generate cellular IC50 values.
(§2) Cells (e.g., BRD4 dependant cells) were counted and adjusted to 60,000 cells/mL. Using a Biotek EL406, 50 μL, of the cells in media were distributed into 384 well white plates from Thermo. Immediately after plating, compounds of the invention in DMSO were distributed to plates. For large plate sets, cells were returned to a 37° C. incubator while not in use. The compounds were added to plates using a 100 nL 384 well pin transfer manifold on a Janus workstation. Stocks were arrayed in 10 point quadruplicate dose response in DMSO stock in 384-well Greiner compound plates. After addition of the compounds, plates were incubated for three days in a 37° C. incubator. Cell viability was read out using ATPlite from Perkin Elmer. Plates were removed from the incubator and brought to room temperature prior to use. Lyophilized powder was resuspended in lysis buffer and diluted 1:2 with DI water. 25 μL of this solution was added to each well using the Biotek liquid handler. Plates were sealed with adherent aluminum seals prior to vortexing and spinning down at 1000 g for 1 minute. Plates were incubated for 15 minutes at room temperature before signal was read on an Envision Plate Reader.

[2] = target: LRRK2 (Homo sapiens, UniProt Q5S007); experiment: LRRK2 IC50; assay type: biochemical
Chain of LRRK2 (Q5S007 whole entry): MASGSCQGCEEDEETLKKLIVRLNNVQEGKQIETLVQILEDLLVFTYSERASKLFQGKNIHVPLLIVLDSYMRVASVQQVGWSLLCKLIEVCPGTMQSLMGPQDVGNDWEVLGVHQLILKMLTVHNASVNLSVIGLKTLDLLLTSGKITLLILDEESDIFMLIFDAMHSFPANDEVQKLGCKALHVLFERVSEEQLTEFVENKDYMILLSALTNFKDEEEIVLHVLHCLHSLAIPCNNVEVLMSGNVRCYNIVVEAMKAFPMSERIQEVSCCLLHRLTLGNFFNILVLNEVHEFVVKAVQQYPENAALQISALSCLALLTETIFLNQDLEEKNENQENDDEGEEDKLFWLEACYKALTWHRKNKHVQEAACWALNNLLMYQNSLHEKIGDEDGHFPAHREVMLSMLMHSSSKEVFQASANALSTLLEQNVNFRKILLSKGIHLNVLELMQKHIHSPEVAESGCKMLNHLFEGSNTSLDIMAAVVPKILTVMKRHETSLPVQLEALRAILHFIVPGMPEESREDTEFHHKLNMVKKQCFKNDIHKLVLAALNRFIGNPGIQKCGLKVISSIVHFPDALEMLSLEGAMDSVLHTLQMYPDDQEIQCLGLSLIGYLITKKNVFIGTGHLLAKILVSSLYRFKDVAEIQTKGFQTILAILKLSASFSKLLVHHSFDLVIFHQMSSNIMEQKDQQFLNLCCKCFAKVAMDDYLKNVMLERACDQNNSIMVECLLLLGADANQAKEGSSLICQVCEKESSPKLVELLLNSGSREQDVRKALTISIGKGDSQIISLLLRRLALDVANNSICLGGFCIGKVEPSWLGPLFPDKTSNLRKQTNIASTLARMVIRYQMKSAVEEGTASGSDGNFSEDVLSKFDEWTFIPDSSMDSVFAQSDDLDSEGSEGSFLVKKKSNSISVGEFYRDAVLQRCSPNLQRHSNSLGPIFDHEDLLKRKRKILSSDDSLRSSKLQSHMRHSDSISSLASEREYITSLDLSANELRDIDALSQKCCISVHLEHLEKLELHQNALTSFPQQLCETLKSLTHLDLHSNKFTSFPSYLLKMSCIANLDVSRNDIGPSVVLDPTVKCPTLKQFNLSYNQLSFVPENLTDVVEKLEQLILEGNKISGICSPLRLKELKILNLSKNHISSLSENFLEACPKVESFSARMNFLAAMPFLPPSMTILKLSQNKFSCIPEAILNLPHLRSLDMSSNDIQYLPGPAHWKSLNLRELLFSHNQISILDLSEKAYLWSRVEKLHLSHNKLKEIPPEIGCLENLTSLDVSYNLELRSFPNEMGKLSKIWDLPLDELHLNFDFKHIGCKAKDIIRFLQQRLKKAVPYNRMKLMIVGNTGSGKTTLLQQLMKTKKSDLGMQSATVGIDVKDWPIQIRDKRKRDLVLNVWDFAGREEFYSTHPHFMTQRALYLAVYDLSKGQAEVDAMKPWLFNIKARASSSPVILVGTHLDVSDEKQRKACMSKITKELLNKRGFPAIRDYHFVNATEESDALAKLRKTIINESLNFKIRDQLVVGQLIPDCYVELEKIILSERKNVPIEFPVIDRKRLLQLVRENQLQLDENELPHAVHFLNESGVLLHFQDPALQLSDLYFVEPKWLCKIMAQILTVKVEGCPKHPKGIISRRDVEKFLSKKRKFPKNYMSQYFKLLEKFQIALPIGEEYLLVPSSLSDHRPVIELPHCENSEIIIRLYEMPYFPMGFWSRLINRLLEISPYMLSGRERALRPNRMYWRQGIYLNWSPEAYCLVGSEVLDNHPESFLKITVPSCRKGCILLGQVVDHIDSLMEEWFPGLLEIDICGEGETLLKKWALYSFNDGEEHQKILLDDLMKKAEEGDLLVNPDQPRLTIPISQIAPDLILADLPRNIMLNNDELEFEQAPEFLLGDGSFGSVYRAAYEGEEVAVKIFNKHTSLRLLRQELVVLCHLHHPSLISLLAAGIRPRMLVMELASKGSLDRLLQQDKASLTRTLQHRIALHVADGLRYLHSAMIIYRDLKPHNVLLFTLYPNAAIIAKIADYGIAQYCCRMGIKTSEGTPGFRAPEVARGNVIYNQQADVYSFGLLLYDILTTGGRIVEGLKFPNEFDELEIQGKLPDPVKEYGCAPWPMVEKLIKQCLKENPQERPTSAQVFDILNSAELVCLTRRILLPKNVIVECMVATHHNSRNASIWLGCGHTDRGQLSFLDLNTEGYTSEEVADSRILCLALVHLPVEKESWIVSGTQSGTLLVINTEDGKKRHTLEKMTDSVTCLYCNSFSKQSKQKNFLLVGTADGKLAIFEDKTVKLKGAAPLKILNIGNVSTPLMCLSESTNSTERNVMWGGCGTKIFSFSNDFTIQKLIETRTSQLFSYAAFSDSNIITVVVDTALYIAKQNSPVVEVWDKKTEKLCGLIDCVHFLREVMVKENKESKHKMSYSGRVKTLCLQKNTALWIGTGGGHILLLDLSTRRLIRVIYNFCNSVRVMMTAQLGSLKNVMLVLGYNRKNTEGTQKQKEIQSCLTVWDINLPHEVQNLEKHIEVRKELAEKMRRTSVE

[3] = tested on: NOMO1; experiment: Cellular assay (ATPlite cell viability), NOMO1; assay type: cell-based; details: NOMO1 cell line
Description: as §1, §2

[4] = tested on: MOLM-13; experiment: Cellular assay (ATPlite cell viability), MOLM-13; assay type: cell-based; details: MOLM-13 cell line
Description: as §1, §2

[5] = tested on: MV411; experiment: Cellular assay (ATPlite cell viability), MV411; assay type: cell-based; details: MV411 cell line
Description: as §1, §2

[6] = tested on: 797; experiment: Cellular assay (ATPlite cell viability), 797; assay type: cell-based; details: 797 cell line
Description: as §1, §2

[7] = tested on: Kasumi-1; experiment: Cellular assay (ATPlite cell viability), Kasumi-1; assay type: cell-based; details: Kasumi-1 cell line
Description: as §1, §2

[8] = target: BRDT (Homo sapiens, UniProt Q58F21); experiment: BRDT IC50; assay type: binding
[9] = target: T1, BRD4 (Homo sapiens, UniProt O60885); experiment: BRD4 IC50 (second BRD4 value listed in Table 2); assay type: binding; details: second BRD4 IC50 listed per compound
[10] = target: T1, BRD4; experiment: BRD4 IC50 (first BRD4 value listed in Table 2); assay type: binding; details: first BRD4 IC50 listed per compound
Description: (§3) Assays were performed with minor modifications from the manufacturer's protocol (PerkinElmer, USA). All reagents were diluted in 50 mM HEPES, 150 mM NaCl, 0.1% w/v BSA, and 0.01% w/v Tween^□ 20 at pH 7.5 and allowed to equilibrate to room temperature prior to addition to plates. After addition of Alpha beads to master solutions, all subsequent steps were performed in low light conditions. […] Addition to wells was performed with either a multichannel pipet (for optimization experiments) or a Biotek EL406 liquid handler. After a 1000-rpm spin-down for 1 minute, 100 nL of the solutions of the compounds of the invention from stock plates were added by pin transfer using a Janus Workstation (PerkinElmer, USA). The streptavidin-coated donor beads (25 μg/ml final) were added as with previous solution in a 2x, 10 μL volume. Following this addition, the plates were sealed with foil to block light exposure and to prevent evaporation. The plates were spun down again at 1000 rpm for 1 minute. Next, the plates were incubated in the room with the plate reader (for temperature equilibration) for 1.5 hour prior to reading the assay.

[11] = target: T2, BRD4.1 (Homo sapiens, UniProt O60885); experiment: Acetyl-histone binding assay (AlphaScreen), percent inhibition of BRD4.1; details: BRD4.1, 2.5 μM compound concentration, in vitro; read-out: % INHIB (at 2.5 uM)
T2 construct: final concentrations of BRD4.1 at 80 nM; His tag (inferred from the Ni-coated acceptor bead)
Description: as §3

[12] = target: T1, BRD4; experiment: BRD4 KD (DiscoveRx); assay type: binding
[13] = target: T3, CREBBP (Homo sapiens, UniProt Q92793); experiment: CREBBP IC50; assay type: binding
T3 sequence (Q92793 whole entry): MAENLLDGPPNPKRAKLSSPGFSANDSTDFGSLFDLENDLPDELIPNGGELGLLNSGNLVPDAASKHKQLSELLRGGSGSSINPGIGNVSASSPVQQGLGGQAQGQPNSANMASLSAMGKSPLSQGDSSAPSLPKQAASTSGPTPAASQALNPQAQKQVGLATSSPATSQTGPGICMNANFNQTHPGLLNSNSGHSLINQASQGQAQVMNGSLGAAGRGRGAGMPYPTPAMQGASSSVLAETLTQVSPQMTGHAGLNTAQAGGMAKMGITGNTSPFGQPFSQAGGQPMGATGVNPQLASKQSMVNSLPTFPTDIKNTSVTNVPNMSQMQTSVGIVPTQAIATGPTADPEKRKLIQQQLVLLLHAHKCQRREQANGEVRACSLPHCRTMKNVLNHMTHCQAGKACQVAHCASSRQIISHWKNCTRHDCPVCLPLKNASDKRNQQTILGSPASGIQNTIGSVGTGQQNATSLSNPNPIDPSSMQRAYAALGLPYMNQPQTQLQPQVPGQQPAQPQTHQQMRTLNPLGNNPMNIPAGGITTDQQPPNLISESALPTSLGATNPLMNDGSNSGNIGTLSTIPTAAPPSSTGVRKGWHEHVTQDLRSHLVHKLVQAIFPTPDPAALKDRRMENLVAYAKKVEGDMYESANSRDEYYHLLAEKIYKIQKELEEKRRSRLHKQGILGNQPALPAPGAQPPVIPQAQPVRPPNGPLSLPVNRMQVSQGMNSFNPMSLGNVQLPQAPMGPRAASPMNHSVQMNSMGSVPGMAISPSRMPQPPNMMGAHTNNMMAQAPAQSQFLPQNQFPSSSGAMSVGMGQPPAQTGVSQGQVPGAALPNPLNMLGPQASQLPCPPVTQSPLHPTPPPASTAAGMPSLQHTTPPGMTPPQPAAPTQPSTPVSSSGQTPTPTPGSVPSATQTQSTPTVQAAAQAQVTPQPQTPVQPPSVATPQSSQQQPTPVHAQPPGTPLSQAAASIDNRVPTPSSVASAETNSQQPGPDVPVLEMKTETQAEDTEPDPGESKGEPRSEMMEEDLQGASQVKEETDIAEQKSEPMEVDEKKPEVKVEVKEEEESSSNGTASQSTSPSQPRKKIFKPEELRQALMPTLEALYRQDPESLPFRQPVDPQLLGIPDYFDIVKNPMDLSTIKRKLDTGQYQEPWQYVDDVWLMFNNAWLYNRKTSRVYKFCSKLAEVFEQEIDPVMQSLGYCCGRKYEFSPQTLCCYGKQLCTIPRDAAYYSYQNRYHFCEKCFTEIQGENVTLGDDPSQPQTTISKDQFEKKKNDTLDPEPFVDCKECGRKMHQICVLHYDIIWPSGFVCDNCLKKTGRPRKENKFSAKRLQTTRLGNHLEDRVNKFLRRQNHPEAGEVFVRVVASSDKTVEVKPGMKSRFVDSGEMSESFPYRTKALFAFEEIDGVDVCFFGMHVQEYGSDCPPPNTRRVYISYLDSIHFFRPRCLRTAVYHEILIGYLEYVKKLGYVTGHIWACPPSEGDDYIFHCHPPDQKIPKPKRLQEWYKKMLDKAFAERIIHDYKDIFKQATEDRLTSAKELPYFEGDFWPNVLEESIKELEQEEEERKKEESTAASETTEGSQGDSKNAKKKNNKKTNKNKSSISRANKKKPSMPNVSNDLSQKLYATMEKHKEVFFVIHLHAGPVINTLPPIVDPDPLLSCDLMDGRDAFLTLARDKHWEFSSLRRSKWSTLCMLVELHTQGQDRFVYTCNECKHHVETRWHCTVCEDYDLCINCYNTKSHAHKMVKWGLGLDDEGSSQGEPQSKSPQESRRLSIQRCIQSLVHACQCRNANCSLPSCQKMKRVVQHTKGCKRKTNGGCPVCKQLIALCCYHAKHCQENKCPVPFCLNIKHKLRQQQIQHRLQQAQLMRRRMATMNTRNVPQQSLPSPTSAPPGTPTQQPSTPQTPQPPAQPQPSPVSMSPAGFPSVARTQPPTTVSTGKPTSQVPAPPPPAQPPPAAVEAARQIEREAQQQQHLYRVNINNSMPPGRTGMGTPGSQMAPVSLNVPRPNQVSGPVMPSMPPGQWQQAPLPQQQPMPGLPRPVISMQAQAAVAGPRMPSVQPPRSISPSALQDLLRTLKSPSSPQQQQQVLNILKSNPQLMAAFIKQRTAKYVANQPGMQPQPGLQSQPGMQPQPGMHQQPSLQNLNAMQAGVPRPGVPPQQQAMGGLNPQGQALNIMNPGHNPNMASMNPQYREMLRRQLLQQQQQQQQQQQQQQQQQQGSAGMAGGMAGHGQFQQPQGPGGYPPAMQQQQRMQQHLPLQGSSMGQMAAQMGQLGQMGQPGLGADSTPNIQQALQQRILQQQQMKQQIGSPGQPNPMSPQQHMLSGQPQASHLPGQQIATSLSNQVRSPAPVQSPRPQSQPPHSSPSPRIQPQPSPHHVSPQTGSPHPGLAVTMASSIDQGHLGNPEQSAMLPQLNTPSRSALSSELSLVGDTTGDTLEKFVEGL

[14] = target: T3, CREBBP; experiment: CREBBP KD (DiscoveRx); assay type: binding

SMILES | IC50 ([4]; Homo sapiens) | IC50 ([5]; Homo sapiens, MV4-11) | IC50 [8] | IC50 [9] | IC50 [10] | inhibition at 2.5 µM [11] | IC50 ([1]; Homo sapiens) | IC50 ([3]; Homo sapiens, NOMO-1) | IC50 [6] | IC50 ([7]; Homo sapiens) | also measured
Cc1sc2c(c1C)C(c1ccc(Cl)cc1)=N[C@@H](CC(=O)OC(C)(C)C)c1nnc(C)n1-2 [JQ1, reference compound] |  |  |  |  |  |  |  |  | 92 nM |  | IC50 [7]: 48.8 nM; IC50 [1]: 109000 nM; IC50 [3]: 172 nM; IC50 [4]: 89.2 nM; IC50 [5]: 65.6 nM
COc1cc(C(=O)N2CCC(N3CCN(C)CC3)CC2)ccc1Nc1ncc2c(n1)N(C)c1ccccc1C(=O)N2C [drawing 33] |  |  |  |  |  | 20.5% |  |  |  |  | 
CN1C(=O)c2ccccc2N(C)c2nc(Nc3ccc(S(N)(=O)=O)cc3)ncc21 [Compound 2-075] | 433 nM | 252 nM | 2880 nM | 1800 nM |  |  | 2140 nM | 2500 nM | 34 nM | 96 nM | Kd [12]: 180 nM; IC50 [13]: 431 nM; IC50 ([10]; unit nm [sic]): 970 nM; Kd [14]: 23 nM
CCOc1cc(N2CCC(O)CC2)ccc1Nc1ncc2c(n1)N(C)c1ccccc1C(=O)N2C |  |  |  |  |  | 29.5% |  |  |  |  | 
COc1cc(N2CCN(C)CC2)ccc1Nc1ncc2c(n1)N(C)c1ccccc1C(=O)N2C |  |  |  |  |  | 36.1% |  |  |  |  | 
CCN1CCN(Cc2ccc(Nc3ncc4c(n3)N(C)c3ccccc3C(=O)N4C)cc2C(F)(F)F)CC1 |  |  |  |  |  | 45.8% |  |  |  |  | 
CN1C(=O)c2ccccc2N(C)c2nc(Nc3ccc(N4CCC(O)CC4)cc3)ncc21 |  |  |  |  |  | 50.8% |  |  |  |  | 

Continued, in another order:

IC50 ([4]; Homo sapiens) | IC50 ([5]; Homo sapiens, MV4-11) | IC50 [8] | IC50 [9] | IC50 [10] | inhibition at 2.5 µM [11] | SMILES | IC50 ([1]; Homo sapiens) | IC50 ([3]; Homo sapiens, NOMO-1) | IC50 [6] | IC50 ([7]; Homo sapiens) | also measured
1270 nM | 549 nM |  |  |  |  | COc1cc(C(=O)N2CCC(N3CCN(C)CC3)CC2)ccc1Nc1ncc2c(n1)N(C)c1ccccc1C(=O)N2C [Compound 1-226] | 3360 nM | 2000 nM | 1300 nM |  | IC50 [2]: 7 nM
6610 nM | > 10000 nM | 2730 nM | 1510 nM | 732 nM |  | CN1C(=O)c2ccccc2N(C)c2nc(Nc3ccc(C(=O)O)cc3OC3CCCC3)ncc21 [Compound 2-043] | 7100 nM | 6800 nM | 1790 nM | 4780 nM | 
4630 nM | 2440 nM | 5550 nM | 2600 nM | 1990 nM |  | COc1cc(C(=O)N2CCC(N3CCN(C)CC3)CC2)ccc1N(C)c1ncc2c(n1)N(C)c1ccccc1C(=O)N2C [Compound 1-284] | 6160 nM | 8600 nM | 7420 nM | 1860 nM | IC50 [2]: 4000 nM
6.93 nM | 7.1 nM |  |  | > 50000 nM |  | C[C@@H](Oc1cc(-n2cnc3ccc(CN4CCN(C)CC4)cc32)sc1C(N)=O)c1ccccc1C(F)(F)F [GSK461364, reference compound] |  | 5.91 nM | 8 nM | 7.8 nM | TF-1 IC50 ([1]; result in words): poor convergence
5740 nM | 3480 nM | 9610 nM | 5700 nM | 2.06 nM |  | CCN(c1ncc2c(n1)N(C)c1ccccc1C(=O)N2C)c1ccc(C(=O)N2CCC(N3CCN(C)CC3)CC2)cc1OC [Compound 2-041] | 7210 nM | 8300 nM | 7100 nM | 2360 nM | IC50 [2]: 3000 nM
